Consider 16 molecules from patent US10670605B2, “Cysteine reactive probes and uses thereof” (The Scripps Research Institute, priority 2015, dated 2020).

“And” between values parts separate entries of the source, which are not always exact repeats. Identical values can stand only once.

What all share (test): Competitive isoTOP-ABPP, cell lysates
Common to all, as to format: binding

One test addresses CDK5 C157 (Q00535) (Homo sapiens, UniProt Q00535). The conditions noted are these: for isoTOP-ABPP ratio (reactivity profile), Q00535_C157: 500 μm in-vitro ramos.
The target in another test is T1, KDM4B C694 (O94953) (Homo sapiens, UniProt O94953).
T1 sequence (O94953 1-1096): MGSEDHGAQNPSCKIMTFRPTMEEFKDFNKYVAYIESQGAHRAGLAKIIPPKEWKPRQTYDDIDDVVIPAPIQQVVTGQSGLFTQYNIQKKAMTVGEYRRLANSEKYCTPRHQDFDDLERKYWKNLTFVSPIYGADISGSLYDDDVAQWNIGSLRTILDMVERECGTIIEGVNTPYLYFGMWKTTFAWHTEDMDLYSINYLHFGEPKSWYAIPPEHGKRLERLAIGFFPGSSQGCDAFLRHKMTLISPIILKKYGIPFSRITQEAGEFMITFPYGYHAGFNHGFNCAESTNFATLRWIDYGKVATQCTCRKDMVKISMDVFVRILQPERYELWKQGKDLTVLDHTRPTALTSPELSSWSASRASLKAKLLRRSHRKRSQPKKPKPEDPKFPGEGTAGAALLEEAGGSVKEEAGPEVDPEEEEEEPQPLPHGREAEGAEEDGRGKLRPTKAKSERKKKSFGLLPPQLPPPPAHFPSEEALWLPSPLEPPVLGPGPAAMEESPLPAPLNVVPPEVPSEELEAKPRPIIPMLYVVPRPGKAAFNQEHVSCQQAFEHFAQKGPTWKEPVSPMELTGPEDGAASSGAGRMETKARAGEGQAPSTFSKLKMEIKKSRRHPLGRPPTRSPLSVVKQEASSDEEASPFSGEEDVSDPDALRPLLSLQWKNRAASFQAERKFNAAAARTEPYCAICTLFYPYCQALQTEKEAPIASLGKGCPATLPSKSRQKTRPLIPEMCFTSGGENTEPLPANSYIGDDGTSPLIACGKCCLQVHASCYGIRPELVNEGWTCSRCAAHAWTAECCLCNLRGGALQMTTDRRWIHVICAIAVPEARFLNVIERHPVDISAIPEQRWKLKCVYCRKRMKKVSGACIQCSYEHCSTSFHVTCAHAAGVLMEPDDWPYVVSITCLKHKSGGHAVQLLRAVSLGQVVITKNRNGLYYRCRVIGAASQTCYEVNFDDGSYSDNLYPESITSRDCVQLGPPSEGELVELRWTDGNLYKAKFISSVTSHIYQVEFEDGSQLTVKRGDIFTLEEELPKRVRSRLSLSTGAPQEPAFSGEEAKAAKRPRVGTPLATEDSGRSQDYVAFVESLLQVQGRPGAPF
The conditions noted are these: for isoTOP-ABPP reactivity profile ratio, O94953_C694 / isoTOP-ABPP reactivity ratio, O94953_C694: 500 μm, in-vitro_ramos.

A further test has as its target PFKFB4 C159 (Q16877) (Homo sapiens, UniProt Q16877). To be noted: for isoTOP-ABPP ratio (reactivity profile), Q16877_C159: 500 μm in-vitro ramos.
A further test addresses USP16 C205 (Q9Y5T5) (Homo sapiens, UniProt Q9Y5T5).
The next test concerns the target T2, IRF8 C306 (Q02556) (Homo sapiens, UniProt Q02556).
T2 sequence (Q02556 1-426): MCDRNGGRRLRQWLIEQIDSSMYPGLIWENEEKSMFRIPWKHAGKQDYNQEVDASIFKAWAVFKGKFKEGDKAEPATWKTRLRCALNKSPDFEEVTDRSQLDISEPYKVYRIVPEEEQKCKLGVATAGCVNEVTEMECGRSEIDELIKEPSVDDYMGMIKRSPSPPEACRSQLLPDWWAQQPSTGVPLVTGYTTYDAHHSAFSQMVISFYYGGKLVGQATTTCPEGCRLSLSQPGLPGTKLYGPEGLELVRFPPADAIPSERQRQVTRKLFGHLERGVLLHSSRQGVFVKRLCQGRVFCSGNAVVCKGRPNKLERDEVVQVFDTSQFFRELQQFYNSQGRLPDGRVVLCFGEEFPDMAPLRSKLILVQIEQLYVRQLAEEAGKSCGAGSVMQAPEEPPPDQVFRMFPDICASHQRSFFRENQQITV
The conditions noted are these: for isoTOP-ABPP reactivity profile ratio, Q02556_C306 / isoTOP-ABPP reactivity ratio, Q02556_C306: 500 μm, in-vitro_ramos.

Chain of USP16 C205 (Q9Y5T5) (Q9Y5T5 whole entry): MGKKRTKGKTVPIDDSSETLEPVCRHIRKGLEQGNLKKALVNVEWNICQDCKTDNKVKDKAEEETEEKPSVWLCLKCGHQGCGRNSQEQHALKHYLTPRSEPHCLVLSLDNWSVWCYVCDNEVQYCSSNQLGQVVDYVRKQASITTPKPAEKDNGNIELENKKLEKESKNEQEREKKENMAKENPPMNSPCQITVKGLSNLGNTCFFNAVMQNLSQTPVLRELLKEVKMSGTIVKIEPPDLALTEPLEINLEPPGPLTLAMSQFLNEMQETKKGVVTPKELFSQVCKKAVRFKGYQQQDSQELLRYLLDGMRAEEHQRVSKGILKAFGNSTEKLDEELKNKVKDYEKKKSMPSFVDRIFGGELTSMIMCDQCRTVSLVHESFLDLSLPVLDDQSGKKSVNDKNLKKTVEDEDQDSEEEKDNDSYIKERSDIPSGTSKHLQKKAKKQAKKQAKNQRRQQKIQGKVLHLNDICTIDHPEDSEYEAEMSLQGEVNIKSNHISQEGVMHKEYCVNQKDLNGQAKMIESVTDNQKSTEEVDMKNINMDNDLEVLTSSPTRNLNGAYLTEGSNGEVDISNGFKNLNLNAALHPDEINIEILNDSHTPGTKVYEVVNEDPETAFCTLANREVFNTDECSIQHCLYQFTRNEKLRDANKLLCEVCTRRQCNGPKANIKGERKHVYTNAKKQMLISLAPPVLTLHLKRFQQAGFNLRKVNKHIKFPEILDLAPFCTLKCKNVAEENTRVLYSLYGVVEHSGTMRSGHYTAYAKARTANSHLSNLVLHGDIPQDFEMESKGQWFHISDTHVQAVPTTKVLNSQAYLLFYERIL
Chain of PFKFB4 C159 (Q16877) (Q16877 whole entry): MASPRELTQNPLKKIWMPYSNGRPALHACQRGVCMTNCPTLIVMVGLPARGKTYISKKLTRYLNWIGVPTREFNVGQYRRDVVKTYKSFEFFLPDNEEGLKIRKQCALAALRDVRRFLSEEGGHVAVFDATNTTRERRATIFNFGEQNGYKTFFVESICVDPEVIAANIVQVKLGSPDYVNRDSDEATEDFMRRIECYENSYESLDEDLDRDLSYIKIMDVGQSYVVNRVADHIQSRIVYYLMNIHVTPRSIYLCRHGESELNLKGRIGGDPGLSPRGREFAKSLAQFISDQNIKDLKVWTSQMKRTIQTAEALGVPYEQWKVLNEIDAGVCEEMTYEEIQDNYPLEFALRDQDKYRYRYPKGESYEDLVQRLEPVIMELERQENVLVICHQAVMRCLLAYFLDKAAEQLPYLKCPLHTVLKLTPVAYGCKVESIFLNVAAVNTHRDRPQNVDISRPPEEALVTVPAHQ
Chain of CDK5 C157 (Q00535) (Q00535 whole entry): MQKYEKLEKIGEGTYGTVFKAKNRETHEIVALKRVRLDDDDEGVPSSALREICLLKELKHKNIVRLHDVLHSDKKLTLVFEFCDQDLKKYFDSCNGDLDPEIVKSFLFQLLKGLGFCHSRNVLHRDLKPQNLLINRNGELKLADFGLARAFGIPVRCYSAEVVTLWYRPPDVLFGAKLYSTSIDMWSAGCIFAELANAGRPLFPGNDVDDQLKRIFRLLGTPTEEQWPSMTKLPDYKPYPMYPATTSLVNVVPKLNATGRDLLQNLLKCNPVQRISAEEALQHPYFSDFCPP

On to `O=C(/C=C/c1ccccc1)Nc1cc(C(F)(F)F)cc(C(F)(F)F)c1` [compound 26], for which the “isoTOP-ABPP ratio (reactivity profile), Q00535_C157” value on CDK5 C157 (Q00535) came out at 0.9.
As for `COc1ccc(C2CC(c3cccs3)=NN2C(=O)CCl)cc1` (stereo not shown) [compound 4], the “R value (DMSO/fragment)” value on CDK5 C157 (Q00535) (250 μM, in vitro, Ramos) is 1.3; at KDM4B C694 (O94953) (250 μM, in vitro, MDA-MB-231), 20.0; on PFKFB4 C159 (Q16877) (250 μM, in vitro, MDA-MB-231), 1.4; at USP16 C205 (Q9Y5T5) (250 μM, in vitro, Ramos), 20.0.
Consider `O=C(CCl)Nc1cccc2ncccc12` [compound 51], for which the “isoTOP-ABPP reactivity profile ratio, Q00535_C157” value on CDK5 C157 (Q00535) (500 μm, in-vitro_ramos) stood at 1.0. For the same molecule, at IRF8 C306 (Q02556), the “isoTOP-ABPP reactivity profile ratio, Q02556_C306” value is recorded as 1.5. The “isoTOP-ABPP reactivity profile ratio, O94953_C694” value at KDM4B C694 (O94953) was found to be 1.4. The “isoTOP-ABPP reactivity profile ratio, Q16877_C159” value on PFKFB4 C159 (Q16877) (500 μm, in-vitro_ramos) was 1.1. Also, the “isoTOP-ABPP reactivity profile ratio, Q9Y5T5_C205” value on USP16 C205 (Q9Y5T5) (500 μm, in-vitro_ramos) turned out to be 3.2; on USP16 C205 (Q9Y5T5) (500 μm, in-vitro_ramos_231), 1.7.
With `O=C(CCl)Nc1ccccc1C1CCCCCC1` [compound 35], on IRF8 C306 (Q02556), the “isoTOP-ABPP reactivity ratio, Q02556_C306” value was determined as 1.2. At KDM4B C694 (O94953), the “isoTOP-ABPP reactivity ratio, O94953_C694” value is recorded as 1.1.
As to `O=C(CCl)NC(=O)NC12CC3CC(CC(C3)C1)C2` [compound 12], the “isoTOP-ABPP ratio, Q00535_C157” value on CDK5 C157 (Q00535) (500 μM, invitro, ramos) was 1.0. For the same molecule, the “isoTOP-ABPP ratio, Q9Y5T5_C205” value on USP16 C205 (Q9Y5T5) (500 μM, invitro, 231) is given as 2.2.
Consider `O=C(CCl)N1CCN(S(=O)(=O)c2ccccc2F)CC1` [compound 10], for which the “isoTOP-ABPP ratio, Q02556_C306” value at IRF8 C306 (Q02556) (500 μM, invitro, ramos) was 3.6. Also, the “isoTOP-ABPP ratio, O94953_C694” value on KDM4B C694 (O94953) (500 μM, invitro, ramos) is 1.4. Moreover, the “isoTOP-ABPP ratio, Q16877_C159” value on PFKFB4 C159 (Q16877) (500 μM, invitro, 231) worked out at 1.2.
For the molecule `O=C(CCl)N1CCN(CC(=O)N2CCOCC2)CC1` [compound 29], the “isoTOP-ABPP ratio (reactivity profile), O94953_C694” value on KDM4B C694 (O94953) (500 μm in-vitro ramos_231) is 1.2.
For the molecule `O=C(CCl)N1CCOCC1` [compound 22], on CDK5 C157 (Q00535), the “isoTOP-ABPP ratio (reactivity profile), Q00535_C157” value came to 0.9. The “isoTOP-ABPP ratio (reactivity profile), Q9Y5T5_C205” value on USP16 C205 (Q9Y5T5) (500 μm in-vitro ramos) was determined as 1.6.
Regarding `CC(C)CCOCCNC(=O)CCl` [compound 27], the “isoTOP-ABPP ratio (reactivity profile), Q00535_C157” value at CDK5 C157 (Q00535) was determined as 1.0. Also, on IRF8 C306 (Q02556) (500 μm in-vitro ramos_231), the “isoTOP-ABPP ratio (reactivity profile), Q02556_C306” value was 1.1. Further, the “isoTOP-ABPP ratio (reactivity profile), O94953_C694” value on KDM4B C694 (O94953) (500 μm in-vitro ramos_231) was 1.4 and 1.0. For the same molecule, the “isoTOP-ABPP ratio (reactivity profile), Q9Y5T5_C205” value at USP16 C205 (Q9Y5T5) (500 μm in-vitro ramos) is given as 0.9; on USP16 C205 (Q9Y5T5) (500 μm in-vitro ramos_231), 1.6.
Consider `O=C(CCl)N1CCC(C(O)(c2ccccc2)c2ccccc2)CC1` [compound 20], for which the “isoTOP-ABPP ratio (reactivity profile), Q00535_C157” value at CDK5 C157 (Q00535) was found to be 2.0. Further, on IRF8 C306 (Q02556) (500 μm in-vitro ramos), the “isoTOP-ABPP ratio (reactivity profile), Q02556_C306” value was 2.1. Moreover, the entries for the “isoTOP-ABPP ratio (reactivity profile), O94953_C694” value on KDM4B C694 (O94953) (500 μm in-vitro ramos) and at KDM4B C694 (O94953) (500 μm in-vitro ramos_231) were 2.0 and 2.8, respectively. Also, the “isoTOP-ABPP ratio (reactivity profile), Q16877_C159” value at PFKFB4 C159 (Q16877) is listed as 1.0.
In the case of `CCN(CC)c1ccc(S(N)(=O)=O)cc1NC(=O)CCl` [compound 30], the “isoTOP-ABPP reactivity ratio, Q02556_C306” value at IRF8 C306 (Q02556) came to 2.0.
With `N#CC(=Cc1ccc(-c2ccccc2Cl)o1)C(N)=O` [compound 42], the “isoTOP-ABPP reactivity profile ratio, Q02556_C306” value on IRF8 C306 (Q02556) was determined as 0.9. In addition, at KDM4B C694 (O94953), the “isoTOP-ABPP reactivity profile ratio, O94953_C694” value is given as 0.9. Further, the “isoTOP-ABPP reactivity profile ratio, Q9Y5T5_C205” value at USP16 C205 (Q9Y5T5) (500 μm, in-vitro_ramos) is 1.5.
With `C=CC(=O)N1CCC(c2noc3ccc(F)cc23)CC1` [compound 37], the “isoTOP-ABPP reactivity ratio, O94953_C694” value at KDM4B C694 (O94953) is given as 1.1.
In the case of `N#C/C(=C\c1cc(C(F)(F)F)cc(C(F)(F)F)c1)C(N)=O` [compound 23], the “isoTOP-ABPP ratio (reactivity profile), Q00535_C157” value at CDK5 C157 (Q00535) came to 2.8. For the same molecule, the “isoTOP-ABPP ratio (reactivity profile), O94953_C694” value on KDM4B C694 (O94953) (500 μm in-vitro ramos) was 3.2. Moreover, the “isoTOP-ABPP ratio (reactivity profile), Q16877_C159” value at PFKFB4 C159 (Q16877) was 1.0. Further, the “isoTOP-ABPP ratio (reactivity profile), Q9Y5T5_C205” value on USP16 C205 (Q9Y5T5) (500 μm in-vitro ramos) came to 1.2.
For `C=CC(=O)Nc1cc(C)c(Br)cc1C` [compound 40], on IRF8 C306 (Q02556), the “isoTOP-ABPP reactivity ratio, Q02556_C306” value was found to be 0.9. On PFKFB4 C159 (Q16877) (500 μm, in-vitro_ramos), the “isoTOP-ABPP reactivity ratio, Q16877_C159” value is given as 1.2. The “isoTOP-ABPP reactivity ratio, Q9Y5T5_C205” value at USP16 C205 (Q9Y5T5) (500 μm, in-vitro_ramos) is 0.9.
For `O=C(CCl)NC12CC3CC(CC(C3)C1)C2` [compound 21], the “isoTOP-ABPP ratio (reactivity profile), O94953_C694” value at KDM4B C694 (O94953) (500 μm in-vitro ramos) was 1.8. Moreover, the “isoTOP-ABPP ratio (reactivity profile), Q16877_C159” value at PFKFB4 C159 (Q16877) is 1.2. On USP16 C205 (Q9Y5T5) (500 μm in-vitro ramos_231), the “isoTOP-ABPP ratio (reactivity profile), Q9Y5T5_C205” value amounted to 1.6.
